Active and inactive are the calls of the source. The rule behind the calls is not given here.
How the values were obtained:
SNU-475 [1] = assay: Cytotoxicity against human SNU-475 cells assessed as reduction in cell viability at 0.5 to 5 uM incubated for 24 hrs by MTT assay; format: functional, cell-based; details: dose 0.5-5 µM
Mahlavu [2] = assay: Cytotoxicity against human Mahlavu cells assessed as reduction in cell viability incubated for 48 hrs by MTT assay; format: functional, cell-based
SNU-449 [3] = assay: Cytotoxicity against human SNU-449 cells assessed as reduction in cell viability incubated for 48 hrs by MTT assay; format: functional, cell-based; details: SNU-449, 48 h
Mahlavu [4] = assay: Induction of cell cycle arrest in human Mahlavu cells assessed as decrease in accumulation of cells in G2/M phase incubated at 0.01 to 0.1 uM for 24 hrs by propidium iodide staining based muse cell analysis; format: functional; details: dose 0.01-0.1 µM
SNU-475 [5] = assay: Induction of apoptosis in human SNU-475 cells assessed as cleaved Caspase 9 level at 0.5 uM incubated for 24 hrs by Western blotting analysis; format: functional, cell-based
SNU-475 [6] = assay: Induction of apoptosis in human SNU-475 cells assessed as cleaved Caspase 7 level at 0.5 uM incubated for 24 hrs by Western blotting analysis; format: functional, cell-based
Hep 3B2 [7] = assay: Induction of apoptosis in human Hep3B cells assessed as cleaved Caspase 9 level at 0.5 uM incubated for 24 hrs by Western blotting analysis; format: functional, cell-based
Mahlavu [8] = assay: Induction of apoptosis in human Mahlavu cells incubated for 24 hrs by Annexin-V/7-AAD staining based muse cell analyzer method; format: functional; details: dose 0.01-0.5 µM
SNU-475 [9] = assay: Induction of apoptosis in human SNU-475 cells incubated for 24 hrs by Annexin-V/7-AAD staining based muse cell analyzer method; format: functional; details: dose 0.01-0.5 µM
Mahlavu [10] = assay: Induction of apoptosis in human Mahlavu cells assessed as chromatin condensation under normoxia condition at 0.1 to 0.5 uM incubated for 24 hrs by DAPI staining based fluorescence microscope analysis; format: functional, cell-based; details: dose 0.1-0.5 µM
Mahlavu [11] = assay: Induction of apoptosis in human Mahlavu cells assessed as early apoptotic cells at 0.66 uM incubated for 24 hrs by Annexin-V/7-AAD staining based muse cell analyzer method (reference value: 6.57 %); format: functional
Mahlavu [12] = assay: Induction of apoptosis in human Mahlavu cells assessed as late apoptotic cells at 0.66 uM incubated for 24 hrs by Annexin-V/7-AAD staining based muse cell analyzer method (reference value: 2.24 %); format: functional
Mahlavu [13] = assay: Induction of apoptosis in human Mahlavu cells assessed as necrotic cells at 0.66 uM incubated for 24 hrs by Annexin-V/7-AAD staining based muse cell analyzer method (reference value: 0.67 %); format: functional
Mahlavu [14] = assay: Induction of apoptosis in human Mahlavu cells assessed as viable cells at IC50 incubated for 24 hrs in presence of Z-VAD-fmk by Annexin-V/7-AAD staining based muse cell analyzer method (reference value: 90.52 %); format: functional
SNU-449 [15] = assay: Induction of apoptosis in human SNU-449 cells assessed as early apoptotic cells at 1.5 uM incubated for 24 hrs by Annexin-V/7-AAD staining based muse cell analyzer method (reference value: 3.95 %); format: functional
SNU-449 [16] = assay: Induction of apoptosis in human SNU-449 cells assessed as late apoptotic cells at 1.5 uM incubated for 24 hrs by Annexin-V/7-AAD staining based muse cell analyzer method (reference value: 5.03 %); format: functional
SNU-449 [17] = assay: Induction of apoptosis in human SNU-449 cells assessed as necrotic cells at 1.5 uM incubated for 24 hrs by Annexin-V/7-AAD staining based muse cell analyzer method (reference value: 0.95 %); format: functional
SNU-449 [18] = assay: Induction of apoptosis in human SNU-449 cells assessed as early apoptotic cells at IC50 concentration incubated for 24 hrs in presence of Z-VAD-fmk by Annexin-V/7-AAD staining based muse cell analyzer method (reference value: 3.95 %); format: functional
Mahlavu [19] = assay: Cytotoxicity against human Mahlavu cells assessed as reduction in cell viability at 0.5 uM incubated for 24 hrs in presence of chloroquine by MTT assay; format: functional, cell-based
SNU-475 [20] = assay: Cytotoxicity against human SNU-475 cells assessed as reduction in cell viability at 0.5 uM incubated for 24 hrs in presence of chloroquine by MTT assay; format: functional, cell-based
Mahlavu [21] = assay: Cytotoxicity against human Mahlavu cells assessed as reduction in cell viability at 0.5 uM incubated for 24 hrs in presence of 3-Methyladenine by MTT assay; format: functional, cell-based
SNU-475 [22] = assay: Cytotoxicity against human SNU-475 cells assessed as reduction in cell viability at 0.5 uM incubated for 24 hrs in presence of 3-Methyladenine by MTT assay; format: functional, cell-based
Hep 3B2 [23] = assay: Cytotoxicity against human Hep3B cells assessed as reduction in cell viability at 0.5 uM incubated for 24 hrs in presence of 3-Methyladenine by MTT assay; format: functional, cell-based
[24] = Inhibition of PI3K/Akt/mTOR signaling pathway in human Mahlavu cells assessed as reduction in phosphorylation of Akt incubated for 1 hr under normoxia condition by Western blotting analysis; format: cell-based; details: dose 0.25-1 µM
[25] = Inhibition of PI3K/Akt/mTOR signaling pathway in human SNU-475 cells assessed as reduction in phosphorylation of mTORC1/2 incubated for 1 hr under normoxia condition by Western blotting analysis; format: cell-based; details: dose 0.25-1 µM
[26] = Inhibition of PI3K/Akt/mTOR signaling pathway in human Hep3B cells assessed as reduction in phosphorylation of Akt incubated for 1 hr under normoxia condition by Western blotting analysis; format: cell-based; details: dose 0.25-1 µM
[27] = Inhibition of PI3K/Akt/mTOR signaling pathway in human SNU-449 cells assessed as reduction in phosphorylation of Akt incubated for 1 hr under normoxia condition by Western blotting analysis; format: cell-based; details: dose 0.25-1 µM
[28] = Inhibition of PI3K/Akt/mTOR signaling pathway in human SNU-475 cells assessed as reduction in phosphorylation of Akt at 1 to 10 nM incubated for 1 hr under hypoxia condition by Western blotting analysis; format: cell-based; details: dose 1-10 nM
[29] = Inhibition of PI3K/Akt/mTOR signaling pathway in human Mahlavu cells assessed as reduction in S6 phosphorylation at 1 to 10 nM incubated for 1 hr under hypoxia condition by Western blotting analysis; format: cell-based; details: dose 1-10 nM
[30] = Inhibition of PI3K/Akt/mTOR signaling pathway in human Mahlavu cells assessed as reduction in S6 phosphorylation at 1 to 10 nM incubated for 1 hr under normoxia condition by Western blotting analysis; format: cell-based; details: dose 1-10 nM
[31] = Inhibition of PI3K/Akt/mTOR signaling pathway in human SNU-475 cells assessed as reduction in S6 phosphorylation at 1 to 10 nM incubated for 1 hr under normoxia condition by Western blotting analysis; format: cell-based; details: dose 1-10 nM
[32] = Inhibition of PI3K/Akt/mTOR signaling pathway in human SNU-449 cells assessed as reduction in phosphorylation of Akt at 0.001 to 0.01 uM incubated for 1 hr under hypoxia condition by Western blotting analysis; format: cell-based; details: dose 0.001-0.01 µM
Hep 3B2 [33] = assay: Cytotoxicity against human Hep3B cells assessed as reduction in cell viability incubated for 24 hrs under normoxia condition by MTT assay; format: functional, cell-based
Hep 3B2 [34] = assay: Cytotoxicity against human Hep3B cells assessed as reduction in cell viability at 0.5 uM incubated for 24 hrs in presence of 3-Methyladenine under hypoxia condition by MTT assay; format: functional, cell-based
[35] = target: Hypoxia-inducible factor 1-alpha (Homo sapiens) (UniProt Q16665); assay: Inhibition of HIF-1alpha in human Mahlavu cells incubated for 6 hrs under hypoxia condition by Western blot analysis; format: cell-based; details: dose 0.01-0.1 µM
Chain of Hypoxia-inducible factor 1-alpha (Homo sapiens) (Q16665 whole entry, looked up): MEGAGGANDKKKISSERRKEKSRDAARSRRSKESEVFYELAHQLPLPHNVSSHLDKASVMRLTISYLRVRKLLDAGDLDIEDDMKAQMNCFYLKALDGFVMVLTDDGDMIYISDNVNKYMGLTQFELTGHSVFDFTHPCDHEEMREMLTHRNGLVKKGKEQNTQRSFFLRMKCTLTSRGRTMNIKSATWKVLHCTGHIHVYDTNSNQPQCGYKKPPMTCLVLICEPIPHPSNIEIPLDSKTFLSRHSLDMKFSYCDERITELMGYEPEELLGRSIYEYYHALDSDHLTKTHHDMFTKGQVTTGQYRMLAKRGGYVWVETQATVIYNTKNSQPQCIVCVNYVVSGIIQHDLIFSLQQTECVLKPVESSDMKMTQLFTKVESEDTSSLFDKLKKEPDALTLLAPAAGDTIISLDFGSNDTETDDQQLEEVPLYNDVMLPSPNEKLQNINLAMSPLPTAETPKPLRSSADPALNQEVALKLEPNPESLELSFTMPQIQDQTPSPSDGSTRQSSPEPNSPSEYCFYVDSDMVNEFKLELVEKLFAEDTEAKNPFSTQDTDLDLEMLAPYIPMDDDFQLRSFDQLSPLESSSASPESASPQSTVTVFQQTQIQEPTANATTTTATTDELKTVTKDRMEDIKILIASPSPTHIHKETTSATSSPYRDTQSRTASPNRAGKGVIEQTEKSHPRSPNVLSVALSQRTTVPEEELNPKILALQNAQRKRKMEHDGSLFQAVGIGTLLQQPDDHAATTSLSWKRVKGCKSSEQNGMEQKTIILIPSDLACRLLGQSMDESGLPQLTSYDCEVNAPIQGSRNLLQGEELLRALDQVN

inhibition [35]: Dose-Dependent Effect
Structure (SMILES): COc1ccc(-c2ccc3ncc4c(c3c2)n(-c2ccc(N3CCNCC3)c(C(F)(F)F)c2)c(=O)n4C)cn1 [BGT-226 FREE BASE]
Activity (SNU-475 [1]): Active
IC50 (Mahlavu [2]): 550 nM
IC50 (SNU-449 [3]): 510 nM
Activity (Mahlavu [4]): Active
Activity (SNU-475 [5]): Active
Activity (SNU-475 [6]): Active
Activity (Hep 3B2 [7]): Active
Activity (Mahlavu [8]): Dose-Dependent Effect
Activity (SNU-475 [9]): Dose-Dependent Effect
Activity (Mahlavu [10]): Active
Activity (Mahlavu [11]): 47.22%
Activity (Mahlavu [12]): 1.99%
Activity (Mahlavu [13]): 0%
Activity (Mahlavu [14]): 81.63%
Activity (SNU-449 [15]): 18.2%
Activity (SNU-449 [16]): 32.14%
Activity (SNU-449 [17]): 1.02%
Activity (SNU-449 [18]): 11.94%
Activity (Mahlavu [19]): Active
Activity (SNU-475 [20]): Active
Activity (Mahlavu [21]): Active
Activity (SNU-475 [22]): Active
Activity (Hep 3B2 [23]): Active
inhibition [24]: Dose-Dependent Effect
inhibition [25]: Dose-Dependent Effect
inhibition [26]: Dose-Dependent Effect
inhibition [27]: Dose-Dependent Effect
inhibition [28]: Active
inhibition [29]: Active
inhibition [30]: Active
inhibition [31]: Active
inhibition [32]: Active
Activity (Hep 3B2 [33]): Active
Activity (Hep 3B2 [34]): Active

From ChEMBL document CHEMBL5647692, “The novel dual PI3K/mTOR inhibitor NVP-BGT226 displays cytotoxic activity in both normoxic and hypoxic hepatocarcinoma cells” (Oncotarget, 2015)
